≈ marks a conversion by molar mass, not a printed value. Where two headings read alike, the source gives them in different places.
Tests used:
P. aerug = assay: antibiotic activity (MIC); format: cell-based
From the text: (§1) Thus, it is possible to achieve an antimicrobial steroid with or without squalamine-like pharmacological activity.

E. coli = assay: antibiotic activity (MIC); format: cell-based; conditions: Escherichia coli; E. coli; read-out: MIC
From the text: as §1

S. aureus = assay: antibiotic activity (MIC); format: cell-based; conditions: Staphylococcus aureus; S. aureus; read-out: MIC
From the text: as §1

C. albicans = assay: antibiotic activity (MIC); format: cell-based; conditions: Candida albicans
From the text: as §1

[1] = test system: stage 59-60 Xenopus tadpole; assay: Xenopus tadpole assay; conditions: in vivo
[2] = test system: human microvascular cells; assay: inhibition of endothelial cell cord formation in vitro; format: cell-based; for effect on endothelial cord formation: key: +: Inhibition of angiogenesis; -: No inhibition of angiogenesis; Toxic; *: cell rounding @ 10 µg/ml
From the text: Endothelial cells have the capacity in vitro to form tubular aggregates resembling capillaries in various early stages of formation. This conversion occurs under relatively specific conditions, in which essential growth factors along with an effective substratum are provided. It has been shown that both the interaction of growth factors with the endothelial cell and its attachment to a substratum activate the NHE. The activation of this exchanger is believed to be required for subsequent morphologic transformation of the endothelial cell into a multicellular tubular structure.
To assess the effect of compounds on the cord-like structures formed by human microvascular cells when plated in the presence of VEGF (Vascular Endothelial Growth Factor) and basic fibroblast growth factor on a collagen matrix, a standard cord formation assay was used.

Compound	MIC (P. aerug; P. aerug, read-out: MIC) [µg/mL]	MIC (E. coli) [µg/mL]	MIC (S. aureus) [µg/mL]	MIC (C. albicans; C. albicans, read-out: MIC) [µg/mL]	similarity of pharmacologic activity in tadpole assay [1]	effect on endothelial cord formation ([2]; 0.1 μg/ml)	effect on endothelial cord formation ([2]; 1.0 μg/ml)	effect on endothelial cord formation ([2]; 10.0 μg/ml)	minimal effective concentration ([2]; Homo sapiens, Endothelial cell, Table II, read-out: Minimum Effective Concentration, Cord Formation) [µg/mL]	MIC (P. aerug) [µg/mL]	MIC (C. albicans) [µg/mL]
COC(=O)CC[C@@H](C)[C@H]1CC[C@H]2[C@@H]3[C@H](O)C[C@H]4C[C@@H](NCCCNCCCCNCCCN)CC[C@]4(C)[C@H]3CC[C@]12C [Compound 396]	128 (≈ 217 µM)	64 (≈ 108 µM)	2 to 4 (≈ 3.38 to 6.77 µM)	16 (≈ 27.1 µM)							
C[C@H](CCC(=O)O)[C@H]1CC[C@H]2[C@@H]3[C@H](O)C[C@H]4C[C@@H](NCCCNCCCCNCCCN)CC[C@]4(C)[C@H]3CC[C@]12C [Compound 397]	16 (≈ 27.7 µM)	32 to 64 (≈ 55.5 to 111 µM)	16 (≈ 27.7 µM)	32 (≈ 55.5 µM)							
COC(=O)CC[C@@H](C)[C@H]1CC[C@H]2[C@@H]3[C@H](O)C[C@@H]4C[C@@H](NCCN)CC[C@]4(C)[C@H]3CC[C@]12C [Compound 409]	128 (≈ 285 µM)	64 (≈ 143 µM)	32 (≈ 71.3 µM)	16 (≈ 35.7 µM)	functionally similar to compound 1437						
COC(=O)CC[C@@H](C)[C@H]1CC[C@H]2[C@@H]3[C@H](O)C[C@@H]4C[C@@H](NCCCNCCCCNCCCN)CC[C@]4(C)[C@H]3CC[C@]12C [Compound 411]	64 (≈ 108 µM)	64 (≈ 108 µM)	8 (≈ 13.5 µM)	2 (≈ 3.38 µM)		-	-	+	10		
C[C@H](CCC(=O)O)[C@H]1CC[C@H]2[C@@H]3[C@H](O)C[C@@H]4C[C@H](NCCN)CC[C@]4(C)[C@H]3CC[C@]12C [Compound 414]	64 (≈ 147 µM)	64 (≈ 147 µM)	32 (≈ 73.6 µM)	64 (≈ 147 µM)	potencies comparable to that of Fraction 1						
COC(=O)CC[C@@H](C)[C@H]1CC[C@H]2[C@@H]3CC[C@@H]4C[C@H](NCCN)CC[C@]4(C)[C@H]3C[C@H](O)[C@]12C [Compound 416]	16 to 32 (≈ 35.7 to 71.3 µM)	8 (≈ 17.8 µM)	8 (≈ 17.8 µM)	32 (≈ 71.3 µM)	functionally similar to compound 1437						
C[C@H](CCC(=O)O)[C@H]1CC[C@H]2[C@@H]3CC[C@@H]4C[C@H](NCCN)CC[C@]4(C)[C@H]3C[C@H](O)[C@]12C [Compound 417]	128 (≈ 294 µM)	64 (≈ 147 µM)	16 to 32 (≈ 36.8 to 73.6 µM)	32 (≈ 73.6 µM)							
COC(=O)CC[C@@H](C)[C@H]1CC[C@H]2[C@@H]3C[C@@H](O)[C@H]4C[C@H](NCCN)CC[C@]4(C)[C@H]3CC[C@]12C [Compound 431]	128 (≈ 285 µM)	32 to 64 (≈ 71.3 to 143 µM)	16 (≈ 35.7 µM)	8 (≈ 17.8 µM)	functionally similar to compound 1437						
COC(=O)CC[C@@H](C)[C@H]1CC[C@H]2[C@@H]3CC[C@@H]4C[C@H](NCCCNCCCCNCCCN)CC[C@]4(C)[C@H]3C[C@H](O)[C@]12C [Compound 448]	8 (≈ 13.5 µM)	16 (≈ 27.1 µM)	2 (≈ 3.38 µM)	8 (≈ 13.5 µM)							
C[C@H](CCC(=O)O)[C@H]1CC[C@H]2[C@@H]3CC[C@@H]4C[C@H](NCCCNCCCCNCCCN)CC[C@]4(C)[C@H]3C[C@H](O)[C@]12C [Compound 449]	4 (≈ 6.93 µM)	8 to 16 (≈ 13.9 to 27.7 µM)	4 (≈ 6.93 µM)	4 (≈ 6.93 µM)			-				
C[C@H](CCC(=O)O)[C@H]1CC[C@H]2[C@@H]3C[C@@H](O)[C@H]4C[C@@H](NCCCNCCCCNCCCN)CC[C@]4(C)[C@H]3CC[C@]12C [Compound 467]	8 (≈ 13.9 µM)	16 (≈ 27.7 µM)	16 (≈ 27.7 µM)	4 (≈ 6.93 µM)			-	-			
C=C(C)C(=O)CC[C@@H](C)[C@H]1CC[C@H]2[C@@H]3[C@H](O)C[C@H]4C[C@@H](NCCCNCCCCN)CC[C@]4(C)[C@H]3CC[C@]12C [Compound 1361]	128 (≈ 235 µM)	32 (≈ 58.8 µM)	4 (≈ 7.35 µM)	4 (≈ 7.35 µM)							
CC(C)CCC[C@@H](C)[C@H]1CC[C@H]2[C@@H]3[C@H](O)C[C@H]4C[C@@H](N)CC[C@]4(C)[C@H]3CC[C@]12C [Compound 1364]	> 256	> 256	2 (≈ 4.95 µM)	2 (≈ 4.95 µM)							
CO[C@@H]1[C@H](OC(=O)/C=C/C=C/C=C/C=C/C(=O)O)CC[C@]2(CO2)[C@H]1[C@@]1(C)O[C@@H]1CC=C(C)C [Fumagillin, reference compound]						-		+			
CC(C)C(O)CC[C@@H](C)[C@H]1CC[C@H]2[C@@H]3[C@H](O)C[C@H]4C[C@@H](NCCCNCCCCN)CC[C@]4(C)[C@H]3CC[C@]12C (stereo partly shown) [MSI-1232]	128 (≈ 234 µM)	32 (≈ 58.4 µM)	4 to 16 (≈ 7.3 to 29.2 µM)	64 (≈ 117 µM)							
CC(C)C(O)CC[C@@H](C)[C@H]1CC[C@H]2[C@@H]3[C@H](O)C[C@H]4C[C@@H](NCCCNCCCCN(C)C)CC[C@]4(C)[C@H]3CC[C@]12C (stereo partly shown) [MSI-1239A]		64 (≈ 111 µM)	8 to 16 (≈ 13.9 to 27.8 µM)							128 (≈ 222 µM)	64 (≈ 111 µM)

Source: patent publication US5763430A, “Method of treating a viral infection by administering a steroid compound” (priority 1995, dated 1998)
